According to paper PMC10064817 (Pharmaceutical Biology, 2023):
Read-outs that look alike come from different tables or passages of the source.

Experiments:
[1] = format: physicochemical; settings: 12 h
Experimental: The LCMS system was operated using a LCMS-8060 (Shimadzu, Kyoto, Japan) equipped with a C18 reversed phase column, Synergi 4 µm Fusion-RP 80 Å 50 × 2 mm (Phenomenex, Torrance, CA). The column oven was maintained at 40 °C and operated using a mobile phase consisting of 0.2% formic acid in water (solvent A) and 100% methanol (solvent B), with a gradient system (0–0.5 min 10% B, 0.5–1.5 min increase to 90% B, 1.5–2.5 min 90% B, 2.5–3.5 min decrease to 10% B, 3.5–4.5 min 10% B), at a flow rate of 0.5 mL/min, with a 10 μL injection volume. The mass spectrometer was a triple quadrupole with negative mode electrospray ionization (ESI). […] All the operations, acquisition and analysis of data were controlled by LabSolution software version 5.86 (Shimadzu, Japan). The LCMS method was validated for accuracy, precision, recovery and stability according to the guidance on bioanalytical method validation recommended by the FDA (USFDA [2018]).

[2] = predicted; ref PubChem [2004]; cited from earlier work
[3] = rat, in vivo, po; cited from earlier work
in vivo = settings: male, beagle, dog
[4] = system: SARS-CoV-2-infected Vero E6 cells; set-up: method as in Kanjanasirirat et al. [2020]; settings: ref Kanjanasirirat et al. [2020]; cited from earlier work
[5] = dog, in vivo, iv, 1 mg/kg
[6] = system: SARS-CoV-2-infected Calu-3 cells; set-up: method as in Sa-ngiamsuntorn et al. [2021]; settings: ref Sa-ngiamsuntorn et al. [2021]; cited from earlier work
COVID-19 = system: COVID-19; set-up: method as in Jayk Bernal et al. [2021]; settings: ref Jayk Bernal et al. [2021]; cited from earlier work
SARS-CoV-2 infection = system: SARS-CoV-2 infection; set-up: method as in Ansems et al. [2021]; settings: hospitalized patients with SARS-CoV-2 infection; ref Ansems et al. [2021]; cited from earlier work

## COc1cc(O)c(C(=O)[C@@H]2[C@H](CC=C(C)C)C(C)=CC[C@H]2c2ccccc2)c(O)c1 [Panduratin A, panduratin A]
[1]; 10 µg/L
  Stability, Accuracy (%RE): 9.75 %RE
  Stability, mean concentration found: 10.98 µg/L
[1]; 150 µg/L
  Stability, Accuracy (%RE): 4.48 %RE
  Stability, mean concentration found: 156.72 µg/L
[1]; 600 µg/L
  Stability, Accuracy (%RE): 4.76 %RE
  Stability, mean concentration found: 628.57 µg/L
[2]
  Hydrogen bond acceptors: four
  Hydrogen bond donors: two
[3]
  Tissue distribution: distribution of panduratin A to various tissues, including skin, lung, heart, gum, liver, spleen, kidney and brain
In vivo
  half-life: 10 to 15 h
In vivo; iv, 1 mg/kg
  AUC(0-inf): 209 µg·h/mL
  AUC(0-t): 181 µg·h/mL
  MRT: 23.9 ± 3.27 h
  Vd: 0.1 ± 0.01 L/kg
  clearance: 0.167 mL/min/kg
  concentration at 72 h: 0.1 to 0.2 µg/mL
  half-life: 15.2 h
In vivo; iv, 1 mg/kg, Cmax
  Cmax: ~100 µg/mL
[4]
  IC50: 810 nM
[5]
  ALT: 44 ± 7 U/L
  AST: 24 ± 6 U/L
  Alkaline phosphatase: 35 ± 4 U/L
  Blood urea nitrogen: 11.9 ± 1.6 mg/dL
  Creatinine: 0.6 ± 0.1 mg/dL
  Haemoglobin: 14.2 ± 1.3 g/dL
  Physical appearance: Normal
  Platelet: 241 ± 44 x 10^3/µL
  Red blood cell: 6.03 ± 0.66 x 10^6/µL
  White blood cell: 7.83 ± 1.09 x 10^3/µL

## C=C1CC[C@@H]2[C@](C)(CO)[C@H](O)CC[C@@]2(C)[C@@H]1C/C=C1/C(=O)OC[C@H]1O [andrographolide]
[6]
  IC50: 34 nM

## CC(C)C(=O)OC[C@H]1O[C@@H](n2ccc(NO)nc2=O)[C@H](O)[C@@H]1O [molnupiravir]
COVID-19
  Reduced rate of hospitalization or death compared to placebo: 30%

## CCC(CC)COC(=O)[C@H](C)N[P@](=O)(OC[C@H]1O[C@@](C#N)(c2ccc3c(N)ncnn23)[C@H](O)[C@@H]1O)Oc1ccccc1 [remdesivir, reference compound]
SARS-CoV-2 infection
  Effect on all-cause mortality at up to day 28: little or no effect
[4]
  IC50: 2710 nM
